Experimental data: publication PMC3366976, “Tuning the Drug Efflux Activity of an ABC Transporter in vivo by in vitro Selected DARPin Binders” (PLoS ONE, 2012)

Molecular target: T1, LmrCD (Lactococcus cremoris, UniProt A2RI37+A2RI38, A2RI37:C179R)
T1 construct: gene lmrC
Experiment: biochemical

T1 sequence (A2RI37 entry or part of it C179R): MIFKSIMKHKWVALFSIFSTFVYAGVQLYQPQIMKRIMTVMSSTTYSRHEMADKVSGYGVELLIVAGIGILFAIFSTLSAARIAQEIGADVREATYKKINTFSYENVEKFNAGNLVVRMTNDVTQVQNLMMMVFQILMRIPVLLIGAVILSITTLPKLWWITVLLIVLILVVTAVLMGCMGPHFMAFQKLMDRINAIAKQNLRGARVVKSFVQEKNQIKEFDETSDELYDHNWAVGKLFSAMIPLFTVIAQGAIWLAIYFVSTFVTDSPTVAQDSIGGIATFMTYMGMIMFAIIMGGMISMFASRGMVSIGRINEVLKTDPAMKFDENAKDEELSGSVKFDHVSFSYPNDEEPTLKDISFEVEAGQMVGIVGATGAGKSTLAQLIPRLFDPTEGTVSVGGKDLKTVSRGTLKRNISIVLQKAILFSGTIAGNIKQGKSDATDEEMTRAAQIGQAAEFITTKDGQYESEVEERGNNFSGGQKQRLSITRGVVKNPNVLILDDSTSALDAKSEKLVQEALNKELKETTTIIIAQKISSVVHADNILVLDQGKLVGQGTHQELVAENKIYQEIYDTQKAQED
T1 sequence (A2RI38 entry or part of it): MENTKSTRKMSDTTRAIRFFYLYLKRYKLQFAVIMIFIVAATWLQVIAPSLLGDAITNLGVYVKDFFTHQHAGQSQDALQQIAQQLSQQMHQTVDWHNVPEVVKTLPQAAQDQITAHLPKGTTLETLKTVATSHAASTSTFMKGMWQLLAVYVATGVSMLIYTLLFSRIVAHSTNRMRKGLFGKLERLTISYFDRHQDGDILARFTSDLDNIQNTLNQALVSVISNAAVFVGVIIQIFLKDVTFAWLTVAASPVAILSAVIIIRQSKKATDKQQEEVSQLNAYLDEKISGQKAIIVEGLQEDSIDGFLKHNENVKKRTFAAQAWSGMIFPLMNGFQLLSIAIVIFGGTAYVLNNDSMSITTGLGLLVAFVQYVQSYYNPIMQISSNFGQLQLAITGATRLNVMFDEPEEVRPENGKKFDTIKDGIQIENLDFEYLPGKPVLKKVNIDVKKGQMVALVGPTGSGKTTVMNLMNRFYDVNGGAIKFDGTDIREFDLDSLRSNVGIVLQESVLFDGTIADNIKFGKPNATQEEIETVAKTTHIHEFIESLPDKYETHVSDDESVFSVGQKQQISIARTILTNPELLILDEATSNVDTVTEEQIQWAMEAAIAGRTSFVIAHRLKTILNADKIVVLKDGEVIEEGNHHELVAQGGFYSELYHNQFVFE

Q: For `[O]=[V]([OH])([OH])[OH]` [orthovanadate], which IC50 is on record?
A: Its IC50 is 120 µM.
